According to patent US20250144224A1, “ABL INHIBITORS AND USES THEREOF” (The Regents of the University of California, priority 2021, published 2025):

Assays:
K562 cells (wild-type) = assay: CellTiter-Glo cell viability, K562 wild-type; conditions: Homo sapiens, K562, 72 h, read-out: EC50 (nM) CTG K562 wt
Description: (§1) Compounds were tested for ability to inhibit cell growth. K562 cells (wild-type or CRISPR base-edited Bcr-Abl T315I) were plated at 1000 cells/well in 96-well plates and treated with the indicated compounds at the indicated concentrations for three days in triplicate, then tested for cell viability by the CellTiter-Glo 2.0 assay (Promega).
(§2) Compounds were tested for ability to inhibit cell growth. K562 cells (wild-type or CRISPR base-edited Bcr-Abl T315I) were plated at 1000 cells/well in 96-well plates and treated with the indicated compounds at the indicated concentrations for three days in triplicate, then tested for cell viability by the CellTiter-Glo 2.0 assay (Promega). […] Compounds were tested for ability to inhibit cell growth. K562 cells (wild-type or CRISPR base-edited Bcr-Abl T315I) were plated at 1000 cells/well in 96-well plates and treated with the indicated compounds at the indicated concentrations for three days in triplicate, then tested for cell viability by the CellTiter-Glo 2.0 assay (Promega).
(§3) Cells were treated with the indicated concentrations of compound in 9-point 3-fold dilution series (100 μL final volume per well) and incubated at 37° C. for 72 h. Cell viability was assessed by CellTiter-Glo (CTG) Luminescent Cell Viability Assay (Promega). Cells were equilibrated to room temperature before the addition of diluted (1:4 CTG reagent:PBS) CTG reagent (100 μL per well). Plates were agitated on an orbital shaker and luminescence signal was measured on a SpectraMax M5 (Molecular Devices) or Spark (Tecan) plate reader. Repeated measurements of luminescence were performed as technical replicates to determine incubation times optimal for signal-to-noise. Luminescence measurements were normalized to DMSO-treated values to determine relative cell viability.

[1] = tested on: K562 cells (CRISPR base-edited Bcr-Abl T315I); assay: CellTiter-Glo cell viability, K562 Bcr-Abl T315I; conditions: Homo sapiens, K562, 72 h, read-out: EC50 (nM) CTG K562 T315I
Description: as §1, §2, §3

Abl wt = Abl wt (Homo sapiens, UniProt P00519); assay: SelectScreen Z'LYTE kinase assay, Abl wt
Description: (§4) Biochemical inhibition of BCR-ABL (wild type) and BCR-ABL (T315I). […] Biochemical experiments performed by Thermo SelectScreen, under conditions which mask the effects of allosteric inhibition. Conditions contain 0.01% BRIJ-35, a common non-ionic detergent added to kinase assay buffers.
(§5) Compounds were tested for ability to inhibit wild-type and T315I Abl kinases in vitro at the indicated concentrations by the SelectScreen Z'LYTE assay (Thermo Scientific).

Abl_T315I = Abl_T315I (Homo sapiens, UniProt P00519, T315I); assay: SelectScreen Z'LYTE kinase assay, Abl T315I
Description: as §4, §5

[2] = Parallel artificial membrane permeability assay (PAMPA); format: in vitro ADME
Description: PAMPA was performed by Quintara Discovery using the BioCoat Pre-coated PAMPA Plate System (Corning) as described previously (15) and based on manufacturer's recommendations. All compounds were assessed at 100 μM in PBS. Compound concentrations in donor and acceptor compartments were quantified using liquid chromatography-mass spectrometry (LC-MS) 5 h following compound addition into the donor compartment.

[3] = tested on: K562 CRISPRi or CRISPRa cells expressing sgRNAs targeting IFITM1-3; assay: Internally normalized cellular fluorescence uptake assay; conditions: 24 h; TAMRA-N3 10 nM, TAMRA-PEG8-N3 1 μM, RapaTAMRA 1 nM
Description: FIGS. 2B-2C: Measurement of fluorescent molecule uptake in K562 CRISPRi (FIG. 2B) or CRISPRa (FIG. 2C) cells expressing sgRNAs (sgRNA+). Cells were incubated with TAMRA-N3 (10 nM), TAMRA-PEG8-N3 (1 μM), or RapaTAMRA (1 nM) for 24 h. Uptake modulation by sgRNAs was quantified by internal normalization to non-transduced cells (sgRNA−) present within the mixture (i.e., relative cellular uptake). Data representative of three biological replicates. FIG. 2D: Changes in uptake of fluorescent molecules by sgRNAs targeting IFITM1-3 as in (FIGS. 2B-2C). […] Data represent means of three biological replicates.
K562 CRISPRi or CRISPRa cells stably expressing sgRNAs marked with BFP mixed at a 1:1 ratio with non-transduced (sgRNA−) cells (20,000 cells in 180 μL per well) were seeded into 96-well round bottom plates and incubated at 37° C. overnight. Cells were treated with fluorescent compounds at the concentrations indicated (200 μL final volume per well) and incubated at 37° C. for 24 h. Cells were pelleted at 500 g, washed twice with ice-cold PBS supplemented with 1% bovine serum albumin (Millipore) and 0.1% NaN3, and resuspended in the same before assessment by flow cytometry on an Attune NxT (Thermo Fisher Scientific). […] Relative cellular uptake was determined by dividing the median TAMRA fluorescence intensity of BFP+ populations by that of BFP—populations (FIG. 2B). […]

SMILES	EC50 (K562 cells (wild-type)) [nM]	EC50 [1] [nM]	also measured
Cc1nc(Nc2ncc(C(=O)Nc3c(C)cccc3Cl)s2)cc(N2CCN(C(=O)CCOCCOCCOCCOCCOCCOCCOCCOCCOCCOCCNC(=O)C3CCN(c4ncc(C(=O)Nc5ccc(OC(F)(F)Cl)cc5)cc4-c4ccn[nH]4)CC3)CC2)n1 [DasatiLink-2]	2.49	> 300	–
Cc1nc(Nc2ncc(C(=O)Nc3c(C)cccc3Cl)s2)cc(N2CCN(C(=O)CCOCCOCCOCCOCCOCCOCCOCCOCCNC(=O)C3CCN(c4ncc(C(=O)Nc5ccc(OC(F)(F)Cl)cc5)cc4-c4ccn[nH]4)CC3)CC2)n1 [DasatiLink-3]	2.94	> 300	EC50 (Abl wt): 1.04 nM
Cc1nc(Nc2ncc(C(=O)Nc3c(C)cccc3Cl)s2)cc(N2CCN(C(=O)CCOCCOCCOCCOCCOCCOCCNC(=O)C3CCN(c4ncc(C(=O)Nc5ccc(OC(F)(F)Cl)cc5)cc4-c4ccn[nH]4)CC3)CC2)n1 [DasatiLink-4]	2.62	> 300	EC50 (Abl wt): 1.81 nM
Cc1ccc(C(=O)Nc2ccc(CN3CCN(C(=O)CCOCCOCCOCCOCCOCCOCCOCCOCCOCCOCCOCCOCCNC(=O)C4CCN(c5ncc(C(=O)Nc6ccc(OC(F)(F)Cl)cc6)cc5-c5ccn[nH]5)CC4)CC3)c(C(F)(F)F)c2)cc1C#Cc1cnc2cccnn12 [PonatiLink-1-12]	2.76	43.7	EC50 (Abl_T315I): 3580 nM; EC50 (Abl wt): 319 nM
Cc1ccc(C(=O)Nc2ccc(CN3CCN(C(=O)CCOCCOCCOCCOCCOCCOCCOCCOCCOCCOCCOCCOCCOCCOCCOCCOCCNC(=O)C4CCN(c5ncc(C(=O)Nc6ccc(OC(F)(F)Cl)cc6)cc5-c5ccn[nH]5)CC4)CC3)c(C(F)(F)F)c2)cc1C#Cc1cnc2cccnn12 [PonatiLink-1-16]	1.4	28.7	EC50 (Abl_T315I): 229 nM; EC50 (Abl wt): 82 nM
Cc1ccc(C(=O)Nc2ccc(CN3CCN(C(=O)CCOCCOCCOCCOCCOCCOCCOCCOCCOCCOCCOCCOCCOCCOCCOCCOCCOCCOCCOCCOCCNC(=O)C4CCN(c5ncc(C(=O)Nc6ccc(OC(F)(F)Cl)cc6)cc5-c5ccn[nH]5)CC4)CC3)c(C(F)(F)F)c2)cc1C#Cc1cnc2cccnn12 [PonatiLink-1-20]	1.02	26.2	EC50 (Abl_T315I): 215 nM; EC50 (Abl wt): 10.8 nM
Cc1ccc(C(=O)Nc2ccc(CN3CCN(C(=O)CCOCCOCCOCCOCCOCCOCCOCCOCCOCCOCCOCCOCCOCCOCCOCCOCCOCCOCCOCCOCCOCCOCCOCCOCCNC(=O)C4CCN(c5ncc(C(=O)Nc6ccc(OC(F)(F)Cl)cc6)cc5-c5ccn[nH]5)CC4)CC3)c(C(F)(F)F)c2)cc1C#Cc1cnc2cccnn12 [PonatiLink-1-24]	0.87	26.3	–
Cc1ccc(C(=O)Nc2ccc(CN3CCN(C(=O)CCOCCOCCOCCOCCOCCOCCOCCOCCOCCOCCOCCOCCOCCOCCOCCOCCOCCOCCOCCOCCOCCOCCOCCOCCOCCOCCOCCOCCNC(=O)C4CCN(c5ncc(C(=O)Nc6ccc(OC(F)(F)Cl)cc6)cc5-c5ccn[nH]5)CC4)CC3)c(C(F)(F)F)c2)cc1C#Cc1cnc2cccnn12 [PonatiLink-1-28]	1.82	49.1	–
Cc1ccc(C(=O)Nc2ccc(CN3CCN(C)CC3)c(C(F)(F)F)c2)cc1C#Cc1cnc2cc(OCCOCCOCCOCCOCCOCCOCCNC(=O)CCOCCOCCOCCOCCNC(=O)C3CCN(c4ncc(C(=O)Nc5ccc(OC(F)(F)Cl)cc5)cc4-c4ccn[nH]4)CC3)ccn12 [PonatiLink-2-7-4]	0.39	1.3	–
Cc1ccc(C(=O)Nc2ccc(CN3CCN(C)CC3)c(C(F)(F)F)c2)cc1C#Cc1cnc2cc(OCCOCCOCCOCCOCCOCCOCCNC(=O)CCOCCOCCOCCOCCOCCOCCNC(=O)C3CCN(c4ncc(C(=O)Nc5ccc(OC(F)(F)Cl)cc5)cc4-c4ccn[nH]4)CC3)ccn12 [PonatiLink-2-7-6]	0.38	1.06	–
Cc1ccc(C(=O)Nc2ccc(CN3CCN(C)CC3)c(C(F)(F)F)c2)cc1C#Cc1cnc2cc(OCCOCCOCCOCCOCCOCCOCCNC(=O)CCOCCOCCOCCOCCOCCOCCOCCOCCNC(=O)C3CCN(c4ncc(C(=O)Nc5ccc(OC(F)(F)Cl)cc5)cc4-c4ccn[nH]4)CC3)ccn12 [PonatiLink-2-7-8]	0.36	0.94	–
Cc1ccc(C(=O)Nc2ccc(CN3CCN(C)CC3)c(C(F)(F)F)c2)cc1C#Cc1cnc2cc(OCCOCCOCCOCCOCCOCCOCCNC(=O)CCOCCOCCOCCOCCOCCOCCOCCOCCOCCOCCNC(=O)C3CCN(c4ncc(C(=O)Nc5ccc(OC(F)(F)Cl)cc5)cc4-c4ccn[nH]4)CC3)ccn12 [PonatiLink-2-7-10]	0.43	0.94	–
CO[C@@H]1C[C@@H]2CC[C@@H](C)[C@@](O)(O2)C(=O)C(=O)N2CCCC[C@@H]2C(=O)O[C@H]([C@H](C)C[C@H]2CC[C@H](OCCOCc3cn(CCOCCOCCOCCOCCOCCOCCOCCOCCC(=O)NCCCCn4nc(-c5ccc6oc(N)nc6c5)c5c(N)ncnc54)nn3)[C@H](OC)C2)CC(=O)[C@H](C)/C=C(\C)[C@H](O)[C@@H](OC)C(=O)[C@H](C)C[C@H](C)/C=C/C=C/C=C/1C [RapaLink-1]	–	–	artificial membrane permeability by PAMPA ([2]; PAMPA): no measurable permeability
CO[C@H]1C[C@@H]2CC[C@@H](C)[C@@](O)(O2)C(=O)C(=O)N2CCCC[C@H]2C(=O)O[C@H]([C@H](C)C[C@@H]2CC[C@@H](OCCOCc3cn(CCOCCOCCOCCOCCOCCOCCOCCOCCNC(=O)c4ccc(C(=O)[O-])c(-c5c6ccc(=[N+](C)C)cc-6oc6cc(N(C)C)ccc56)c4)nn3)[C@H](OC)C2)CC(=O)[C@H](C)/C=C(\C)[C@@H](O)[C@@H](OC)C(=O)[C@H](C)C[C@H](C)/C=C/C=C/C=C/1C [RapaTAMRA]	–	–	change in relative cellular uptake with IFITM1-3 knockdown / overexpression [3]: decreased uptake upon knockdown of IFITM1-3 and increased uptake upon overexpression
O=C(Nc1ccc(OC(F)(F)Cl)cc1)c1cnc(N2CC[C@@H](O)C2)c(-c2ccn[nH]2)c1 [asciminib, reference compound]	–	–	artificial membrane permeability by PAMPA ([2]; 100 μM in PBS, 5 h, LC-MS): readily permeable
Cc1nc(Nc2ncc(C(=O)Nc3c(C)cccc3Cl)s2)cc(N2CCN(CCO)CC2)n1 [dasatinib]	–	–	artificial membrane permeability by PAMPA ([2]; 100 μM in PBS, 5 h, LC-MS): readily permeable
CO[C@H]1C[C@@H]2CC[C@@H](C)[C@@](O)(O2)C(=O)C(=O)N2CCCC[C@H]2C(=O)O[C@H]([C@H](C)C[C@@H]2CC[C@@H](O)[C@H](OC)C2)CC(=O)[C@H](C)/C=C(\C)[C@@H](O)[C@@H](OC)C(=O)[C@H](C)C[C@H](C)/C=C/C=C/C=C/1C [rapamycin]	–	–	artificial membrane permeability by PAMPA ([2]; 100 μM in PBS, 5 h, LC-MS): readily permeable
CC(C)n1nc(-c2ccc3oc(N)nc3c2)c2c(N)ncnc21 [sapanisertib]	–	–	artificial membrane permeability by PAMPA ([2]; 100 μM in PBS, 5 h, LC-MS): readily permeable
